The target of this assay is T1, human toll like receptor 7 (hTLR7) (Homo sapiens, UniProt Q9NYK1).
T1 construct: host or cells: HEK293 (HEK-Blue hTLR7)
T1 sequence (Q9NYK1 27-1049): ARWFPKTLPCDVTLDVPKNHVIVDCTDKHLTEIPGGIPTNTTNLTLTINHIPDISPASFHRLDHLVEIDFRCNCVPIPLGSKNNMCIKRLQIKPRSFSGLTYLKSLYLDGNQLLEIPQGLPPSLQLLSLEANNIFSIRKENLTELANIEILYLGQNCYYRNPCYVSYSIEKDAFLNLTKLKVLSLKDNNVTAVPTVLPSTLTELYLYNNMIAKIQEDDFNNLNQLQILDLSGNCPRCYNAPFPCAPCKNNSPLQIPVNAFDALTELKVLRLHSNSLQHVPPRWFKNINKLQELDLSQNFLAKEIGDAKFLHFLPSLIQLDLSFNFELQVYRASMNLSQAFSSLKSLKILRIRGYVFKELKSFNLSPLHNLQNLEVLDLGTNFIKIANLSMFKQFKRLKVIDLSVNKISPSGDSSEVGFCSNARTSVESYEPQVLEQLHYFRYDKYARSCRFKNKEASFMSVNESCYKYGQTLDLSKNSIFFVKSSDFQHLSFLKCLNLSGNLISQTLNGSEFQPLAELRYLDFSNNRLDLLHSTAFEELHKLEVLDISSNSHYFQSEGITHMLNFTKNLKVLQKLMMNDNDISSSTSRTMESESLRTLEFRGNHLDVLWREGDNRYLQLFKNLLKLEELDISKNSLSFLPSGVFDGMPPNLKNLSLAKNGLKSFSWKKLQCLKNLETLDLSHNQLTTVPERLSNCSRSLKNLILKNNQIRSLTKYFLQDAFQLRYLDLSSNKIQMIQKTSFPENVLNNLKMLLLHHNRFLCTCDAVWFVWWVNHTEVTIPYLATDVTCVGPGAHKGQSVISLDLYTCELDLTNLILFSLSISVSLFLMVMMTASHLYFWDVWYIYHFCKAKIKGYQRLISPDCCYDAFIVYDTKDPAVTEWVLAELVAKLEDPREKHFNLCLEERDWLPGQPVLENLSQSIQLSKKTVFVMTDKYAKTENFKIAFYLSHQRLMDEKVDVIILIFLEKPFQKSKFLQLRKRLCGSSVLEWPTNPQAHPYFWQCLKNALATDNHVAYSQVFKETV
Put plainly: hTLR7 cell functional assay (HEK-Blue hTLR7 SEAP reporter). It counts as cell-based. Conditions: HEK293 cells stably overexpressing hTLR7, SEAP reporter; geometric mean when tested more than once. Here is the method: The Examples described were tested for biological activity in functional cellular assays using HEK293 cells stably overexpressing human TLR7 or TLR8. The assays tested for the ability of each Example to stimulate secretion of interferon alpha (IFNα) in human primary blood mono nuclear cells (PBMC).
To determine the ability of each Example to activate the human toll like receptor 7 (hTLR7) or human toll like receptor 8 (hTLR8), cell-based reporter systems were utilized. HEK293 cells stably overexpressing either hTLR7 or hTLR8 along with a reporter gene containing an optimized secreted embryonic alkaline phosphatase gene (SEAP), under the control of the IFN-b minimal promoter fused to five NF-κB and AP-1-binding sites, were obtained from Invivogen (HEK-Blue™ hTLR7, cat #Hkb-ht1r7; HEK-Blue™ hTLR8, cat #Hkb-ht1r8). Stimulation of hTLR7 or hTLR8 in these cells activates NF-κB and AP-1 and induces the production of SEAP which can be quantified using an alkaline phosphatase detection reagent.
Cells were maintained in Dulbecco's Modified Eagle Media (DMEM) (containing Fetal Bovine Serum (FBS) heat inactivated (10%), Glutamax (2 mM), Penicillin/Streptomycin, Blasticidin (10 μg/ml), Zeocin (100 μg/ml) and Normocin (100 μg/ml)). On day one of the assay, Examples were prepared using 11-point half-log serial dilutions from a 10mM DMSO stock solution and 50 nl was spotted into 384-well Viewplates (PerkinElmer, cat #6007480). Positive control TLR7/8 agonist and negative control (DMSO, no Example) were also spotted within the assay plate and were used to determine percent effect during the analysis process. After resuspension in DMEM assay media containing FBS heat inactivated (10%), Glutamax (2 mM) and Penicillin/Streptomycin, 10,000 cells/20 μl/well were added to previously prepared plates. Plates were incubated overnight (16-20 hrs) at 37° C. in a 5% CO2 environment. Prewetted Microclime lids (Labcyte, LLS-0310) were used to prevent evaporation. On day two of the assay, QUANTI-Blue™ detection reagent was prepared by reconstituting QUANTI-Blue™ powder (InvivoGen, Rep-qb1) with 100 ml of sterile water and allowed to equilibrate to 37° C. for 15 minutes. 20 μl of QUANTI-Blue™ detection reagent was added to each well and plates were incubated at room temperature for 180 min. At the end of the incubation, plates were read on an Envision (Perkin Elmer) plate reader capturing absorbance at 650 nm.
Using Positive (TLR7/8 agonist) and Negative (DMSO) controls, the percent (%) effect was calculated for each Example using the following equation: effect=100−[100*{(Example−Positive Control)/(Negative Control−Positive Control)}]
The % effect at each concentration of each Example was calculated utilizing the ABase software suite (IBDS) and was relative to the amount of SEAP produced in the positive and negative control wells contained within each assay plate. The concentrations and % effect values for each Example were fit using a 4-parameter logistic model in ABase and the concentration of each Example that produced 50% response (EC50) was calculated.

The EC50 is the concentration at which the effect is half-maximal. The low end stands for an effect from little substance, the high end for a need for much substance.

Consider `CCOCc1nc2c(N)nc(C)c(C)c2n1CC(CC)(CO)CO` [Example 9, 2-((4-amino-2-(ethoxymethyl)-6,7-dimethyl-1H-imidazo[4,5-c]pyridin-1-yl)methyl)-2-ethylpropane-1,3-diol], for which the EC50 turned out to be 27 nM. In turn, `CCCCc1nc2c(N)nc3ccccc3c2n1CC(C)(CO)CO` [Example 10, 2-((4-amino-2-butyl-1H-imidazo[4,5-c]quinolin-1-yl)methyl)-2-methylpropane-1,3-diol] registered an EC50 of 4 nM. The molecule `CCCCc1nc2c(N)nc3c(c2n1CC(C)(CO)CO)CCC3` [Example 14, 2-((4-amino-2-butyl-7,8-dihydrocyclopenta[b]imidazo[4,5-d]pyridin-1(6H)-yl)methyl)-2-methylpropane-1,3-diol] had an EC50 of 14 nM.

Take `CCc1nc2c(N)nc3ccccc3c2n1CC(C)(CO)CO` [Example 15, 2-((4-amino-2-ethyl-1H-imidazo[4,5-c]quinolin-1-yl)methyl)-2-methylpropane-1,3-diol]: the EC50 was 75 nM. With `CCCCc1nc2c(N)nc3c(c2n1CC(C)(CO)CO)CCCC3` [Example 13, 2-((4-amino-2-butyl-6,7,8,9-tetrahydro-1H-imidazo[4,5-c]quinolin-1-yl)methyl)-2-methylpropane-1,3-diol] the figure was 9 nM. With `Cc1nc(N)c2nc(CC(F)(F)F)n(CC(C)(CO)CO)c2c1C` [Example 8, 2-((4-amino-6,7-dimethyl-2-(2,2,2-trifluoroethyl)-1H-imidazo[4,5-c]pyridin-1-yl)methyl)-2-methylpropane-1,3-diol] the figure was 78 nM; with `CCOCc1nc2c(N)nc3ccccc3c2n1CC(C)(CO)CO` [Example 3, 2-((4-amino-2-(ethoxymethyl)-1H-imidazo[4,5-c]quinolin-1-yl)methyl)-2-methylpropane-1,3-diol], 29 nM; with `CCOCc1nc2c(N)nc(C)c(C)c2n1CC(C)(CO)CO` [Example 2, 2-((4-amino-2-(ethoxymethyl)-6,7-dimethyl-1H-imidazo[4,5-c]pyridin-1-yl)methyl)-2-methylpropane-1,3-diol], 54 nM.

Turning to `CCCc1nc2c(N)nc3ccccc3c2n1CC(C)(CO)CO` [Example 16, 2-((4-amino-2-propyl-1H-imidazo[4,5-c]quinolin-1-yl)methyl)-2-methylpropane-1,3-diol], a half-maximal effect (EC50) was put at 19 nM. With `CCOCc1nc2c(N)nc(C)c(C)c2n1CC(CO)CO` [Example 1, 2-((4-amino-2-(ethoxymethyl)-6,7-dimethyl-1H-imidazo[4,5-c]pyridin-1-yl)methyl)propane-1,3-diol] the figure was 644 nM.

Take `CCOCc1nc2c(N)nc(C)c(C)c2n1CC(C)(CO)COC` (single isomer, unassigned) [Example 7, 3-(4-amino-2-(ethoxymethyl)-6,7-dimethyl-1H-imidazo[4,5-c]pyridin-1-yl)-2-(methoxymethyl)-2-methylpropan-1-ol]: a half-maximal effect (EC50) was put at 103 nM. As for `CCOCc1nc2c(N)nc(C)c(C)c2n1CC(C)(CO)COC` (single isomer, unassigned) [Example 6, 3-(4-amino-2-(ethoxymethyl)-6,7-dimethyl-1H-imidazo[4,5-c]pyridin-1-yl)-2-(methoxymethyl)-2-methylpropan-1-ol], the figure is 49 nM.

For the origin of these results see patent publication US11976064B2, “Toll-like receptor agonists” (Pfizer Inc., priority 2019, dated 2024).
